Results as given in the NIST ThermoML archive (doi:10.1021/je050170x).

Legend:
[1] = refractive index (Na D-line) (dimensionless); conditions: 101.33 kPa, Liquid, Standard Abbe refractometry
[2] = for surface tension liquid-gas: Wilhelmy-plate method; for mass density / viscosity: 101.33 kPa, Liquid; for viscosity: Capillary tube (Ostwald / Ubbelohde) method

CC(=O)OCCC(C)C [3-methylbutyl ethanoate]
Conditions | mass density, [2] [kg/m3] | refractive index, [1] | surface tension liquid-gas, [2] [mN/m] | viscosity, [2] [mPa·s]
288.15 K | 877.72 | 1.40288 | 25.4 | 0.94
298.15 K | 867.91 | 1.39836 | 24.3 | 0.804
308.15 K | 858.07 | 1.39365 | 23.4 | 0.704
318.15 K | 848.17 | 1.38895 | 22.4 | 0.627
328.15 K | 838.22 | 1.38447 | 21.6 | 0.559
338.15 K | 828.19 | 1.37971 | 20.6 | 0.484
348.15 K | 818.07 | 1.37487 | 19.6 | 0.434
358.15 K | 807.85 | 1.36995 | 18.7 | 0.39

CCCCCCCC(=O)OCC [ethyl octanoate]
Conditions | mass density, [2] [kg/m3] | refractive index, [1] | surface tension liquid-gas, [2] [mN/m] | viscosity, [2] [mPa·s]
288.15 K | 870.79 | 1.41991 | 27.2 | 1.697
298.15 K | 862.15 | 1.4156 | 26.4 | 1.411
308.15 K | 853.52 | 1.41137 | 25.5 | 1.193
318.15 K | 844.87 | 1.40702 | 24.7 | 1.027
328.15 K | 836.21 | 1.40294 | 23.8 | 0.892
338.15 K | 827.53 | 1.39857 | 22.8 | 0.784
348.15 K | 818.58 | 1.39418 | 22 | 0.694
358.15 K | 810.05 | 1.38974 | 21.4 | 0.617
